Measured values from patent publication US20060093673A1, “Controlled release of anti-arrhythmic agents” (priority 2003, published 2006).
≈ marks a conversion by molar mass, not a printed value. Counter-ions that a name gives are not always drawn.

Tests used:
[1] = In-vitro release from FocalSeal-L gel disks, flow-through dissolution tank; type: physicochemical; conditions: FocalSeal-L with 1% dexamethasone and 1% amiodarone HCl; 2 mm gel disc
Text: Method: […] The gel disks were then placed in a flow-through dissolution tank and gels were sampled over time. Residual drug was extracted from the gel disks with methanol and drug was quantitated by HPLC.

[2] = Modulus and pH of FOCALSEAL-L as a function of drug loading; conditions: loaded into the FOCALSEAL-L formulation
[3] = cited from earlier work

Compound	time over which amiodarone HCl is released in-vitro [1]	loading level that maintains acceptable pH and modulus values [2]	aqueous solubility [3]
CCCCc1oc2ccccc2c1C(=O)c1cc(I)c(OCCN(CC)CC)c(I)c1 [amiodarone, Amiodarone hydrochloride]	11 to 12 days	about 1.5%	–
C[C@@H]1C[C@H]2[C@@H]3CCC4=CC(=O)C=C[C@]4(C)[C@@]3(F)[C@@H](O)C[C@]2(C)[C@@]1(O)C(=O)CO [dexamethasone free base, dexamethasone]	–	–	10000 µg/mL (≈ 25.5 mM)
